Measurements from patent publication US20160113282A1 (HONBU SANKEI CO., LTD., priority 2013, published 2016).
Values joined by “and” are separate entries in the source; they are usually repeats but may differ in a detail not shown here. Equal values may be shown once. Read-outs that look alike come from different tables or passages of the source.

Tests used:
[1] = test system: feline calicivirus F4 strain
[2] = test system: feline calicivirus F4 strain; assay: Inactivation of feline caliciviruses (Example 10), plaque assay on CRFK cells; format: cell-based
[3] = test system: influenza virus Type A Aichi strain A/Aichi/68 (H3N2); format: cell-based
[4] = test system: poliovirus type I live vaccine strain
influenza viruses = conditions: pH 6.5 (FIG. 4)
[5] = test system: Herpes simplex virus type I VR-539; assay: Inactivation of herpesviruses, plaque assay on Vero cells; format: cell-based

With “chlorous acid [Chlorous acid aqueous solution]” the “concentration with disinfecting capability against feline caliciviruses” value [1] was 400 ppm, the “ratio of the amount of residual infectious viruses” value [1] was 0.38 and 0.66 and the “active chlorine concentration at which feline caliciviruses were inactivated to below the detectable limit” value [2] was at least 200 ppm. The “effect of pH on inactivation of feline caliciviruses” value [2] was “hardly any effect due to pH”, the “concentration at which influenza viruses were inactivated to below the detectable limit” value ([3]; pH 5.5) was at most 100 ppm and the “ratio of the amount of residual infectious viruses” value ([3]; pH 5.5) was 0.34. For the same molecule, the “infectious viruses decreased to” value ([3]; pH 6.5) was “about 1%”, the “ratio of the amount of residual infectious viruses” value ([3]; pH 6.5) was 0.63 and the “concentration at which viruses were inactivated to about the detectable limit” value ([3]; pH 7.5) was 200 ppm. The “ratio of the amount of residual infectious viruses” value ([3]; pH 7.5) was 1.16, the “virus disinfection effect on influenza viruses” value ([3]; pH 7.5) was “significant virus disinfection effect” and the “effect on influenza viruses” value ([3]; pH 8.5) was “there is an effect even at pH of 8.5”. The “ratio of the amount of residual infectious viruses” value ([3]; pH 8.5) was 1.31, the disinfection of polioviruses [4] was “disinfection was only observed at pH of 5.5” and the “concentration at which most polioviruses were disinfected” value ([4]; pH 5.5) was 500 ppm. The “contact needed to completely inactivate influenza viruses” value (influenza viruses; 5 ppm chlorous acid concentration) was “one minute or less”, the “time after which disinfecting of influenza viruses was almost completed” value (influenza viruses; 5 ppm upon contact) was about 30 s and the “concentration exhibiting a superb sterilizing effect on HSV-I” value ([5]; pH 4.5-5.5) was at least 100 ppm. For the same molecule, the “Number of Residual Viruses in Test Solution/Number of Residual Viruses only with Buffer × 100 (%)” value ([5]; pH 4.5, 10 ppm) was 48%, the “Number of Residual Viruses in Test Solution/Number of Residual Viruses only with Buffer × 100 (%)” value ([5]; pH 4.5, 50 ppm) was 1.3% and the “Number of Residual Viruses in Test Solution/Number of Residual Viruses only with Buffer × 100 (%)” value ([5]; pH 4.5, 100 ppm) was under 0.3%. For the same molecule, the “Number of Residual Viruses in Test Solution/Number of Residual Viruses only with Buffer × 100 (%)” value ([5]; pH 4.5, 100 ppm, listed as chlorous acid aqueous solution) was “below the detectable limit”, the “Number of Residual Viruses in Test Solution/Number of Residual Viruses only with Buffer × 100 (%)” value ([5]; pH 4.5, 150 ppm) was under 0.2% and the “Number of Residual Viruses in Test Solution/Number of Residual Viruses only with Buffer × 100 (%)” value ([5]; pH 4.5, 150 ppm, listed as chlorous acid aqueous solution) was “below the detectable limit”. For the same molecule, the “Number of Residual Viruses in Test Solution/Number of Residual Viruses only with Buffer × 100 (%)” value ([5]; pH 4.5, 200 ppm) was under 0.4%, the “Number of Residual Viruses in Test Solution/Number of Residual Viruses only with Buffer × 100 (%)” value ([5]; pH 4.5, 200 ppm, listed as chlorous acid aqueous solution) was “below the detectable limit” and the “Number of Residual Viruses in Test Solution/Number of Residual Viruses only with Buffer × 100 (%)” value ([5]; pH 5.5, 10 ppm) was 100%. The “Number of Residual Viruses in Test Solution/Number of Residual Viruses only with Buffer × 100 (%)” value ([5]; pH 5.5, 50 ppm) was 12.1%, the “Number of Residual Viruses in Test Solution/Number of Residual Viruses only with Buffer × 100 (%)” value ([5]; pH 5.5, 100 ppm) was 10.1% and the “Number of Residual Viruses in Test Solution/Number of Residual Viruses only with Buffer × 100 (%)” value ([5]; pH 5.5, 150 ppm) was under 0.2%. For the same molecule, the “Number of Residual Viruses in Test Solution/Number of Residual Viruses only with Buffer × 100 (%)” value ([5]; pH 5.5, 150 ppm, listed as chlorous acid aqueous solution) was “below the detectable limit”, the “Number of Residual Viruses in Test Solution/Number of Residual Viruses only with Buffer × 100 (%)” value ([5]; pH 5.5, 200 ppm) was under 0.5% and the “Number of Residual Viruses in Test Solution/Number of Residual Viruses only with Buffer × 100 (%)” value ([5]; pH 5.5, 200 ppm, listed as chlorous acid aqueous solution) was “below the detectable limit”. For the same molecule, the “Number of Residual Viruses in Test Solution/Number of Residual Viruses only with Buffer × 100 (%)” value ([5]; pH 6.5, 10 ppm) was 100%, the “Number of Residual Viruses in Test Solution/Number of Residual Viruses only with Buffer × 100 (%)” value ([5]; pH 6.5, 50 ppm) was 63.6% and the “Number of Residual Viruses in Test Solution/Number of Residual Viruses only with Buffer × 100 (%)” value ([5]; pH 6.5, 100 ppm) was 76.6%. The “Number of Residual Viruses in Test Solution/Number of Residual Viruses only with Buffer × 100 (%)” value ([5]; pH 6.5, 150 ppm) was 22.2%, the “Number of Residual Viruses in Test Solution/Number of Residual Viruses only with Buffer × 100 (%)” value ([5]; pH 6.5, 200 ppm) was under 0.6% and the “Number of Residual Viruses in Test Solution/Number of Residual Viruses only with Buffer × 100 (%)” value ([5]; pH 7.5, 10 ppm) was 100%. The “Number of Residual Viruses in Test Solution/Number of Residual Viruses only with Buffer × 100 (%)” value ([5]; pH 7.5, 50 ppm) was 77.4%, the “Number of Residual Viruses in Test Solution/Number of Residual Viruses only with Buffer × 100 (%)” value ([5]; pH 7.5, 100 ppm) was 84.7% and the “Number of Residual Viruses in Test Solution/Number of Residual Viruses only with Buffer × 100 (%)” value ([5]; pH 7.5, 150 ppm) was 55.8%. The “Number of Residual Viruses in Test Solution/Number of Residual Viruses only with Buffer × 100 (%)” value ([5]; pH 7.5, 200 ppm) was 16.8%, the “Number of Residual Viruses in Test Solution/Number of Residual Viruses only with Buffer × 100 (%)” value ([5]; pH 8.5, 10 ppm) was 100% and the “Number of Residual Viruses in Test Solution/Number of Residual Viruses only with Buffer × 100 (%)” value ([5]; pH 8.5, 50 ppm) was 75.3%. For the same molecule, the “Number of Residual Viruses in Test Solution/Number of Residual Viruses only with Buffer × 100 (%)” value ([5]; pH 8.5, 100 ppm) was 98.4%, the “Number of Residual Viruses in Test Solution/Number of Residual Viruses only with Buffer × 100 (%)” value ([5]; pH 8.5, 150 ppm) was 80% and the “Number of Residual Viruses in Test Solution/Number of Residual Viruses only with Buffer × 100 (%)” value ([5]; pH 8.5, 200 ppm) was 30%. For the same molecule, the “concentration giving a sufficient effect” value ([5]; pH of 6.5 or lower (FIG. 2B)) was at least 200 ppm and the “concentration giving a sufficient sterilizing effect” value ([5]; significant at pH of 5.5 or lower (FIG. 2B)) was at least 50 ppm.
With [Na+].[O-]Cl [(4) sodium hypochlorite aqueous solution] the “Number of Residual Viruses in Test Solution/Number of Residual Viruses only with Buffer × 100 (%)” value ([5]; pH 4.5, 200 ppm) was “below the detectable limit”.
In the case of “sodium chlorite [Sodium chlorite aqueous solution]”, the “ratio of the amount of residual infectious viruses” value ([3]; pH 5.5) is reported as 1.07, the residual relative infectivity ([3]; pH 5.5) is reported as 1/10 and the “ratio of the amount of residual infectious viruses” value ([3]; pH 6.5) is reported as 1.19. For the same molecule, the “ratio of the amount of residual infectious viruses” value ([3]; pH 7.5) was 1.09, the “ratio of the amount of residual infectious viruses” value ([3]; pH 8.5) was 1.07 and the “Number of Residual Viruses in Test Solution/Number of Residual Viruses only with Buffer × 100 (%)” value ([5]; pH 4.5, 10 ppm) was 52%. For the same molecule, the “Number of Residual Viruses in Test Solution/Number of Residual Viruses only with Buffer × 100 (%)” value ([5]; pH 4.5, 50 ppm) was 51.5%, the “Number of Residual Viruses in Test Solution/Number of Residual Viruses only with Buffer × 100 (%)” value ([5]; pH 4.5, 100 ppm) was 27.6% and the “Number of Residual Viruses in Test Solution/Number of Residual Viruses only with Buffer × 100 (%)” value ([5]; pH 4.5, 150 ppm) was 34.4%. The “Number of Residual Viruses in Test Solution/Number of Residual Viruses only with Buffer × 100 (%)” value ([5]; pH 4.5, 200 ppm) was under 0.4%, the “Number of Residual Viruses in Test Solution/Number of Residual Viruses only with Buffer × 100 (%)” value ([5]; pH 5.5, 10 ppm) was 100% and the “Number of Residual Viruses in Test Solution/Number of Residual Viruses only with Buffer × 100 (%)” value ([5]; pH 5.5, 50 ppm) was 87.3%. For the same molecule, the “Number of Residual Viruses in Test Solution/Number of Residual Viruses only with Buffer × 100 (%)” value ([5]; pH 5.5, 100 ppm) was 93.2%, the “Number of Residual Viruses in Test Solution/Number of Residual Viruses only with Buffer × 100 (%)” value ([5]; pH 5.5, 150 ppm) was 100% and the “Number of Residual Viruses in Test Solution/Number of Residual Viruses only with Buffer × 100 (%)” value ([5]; pH 5.5, 200 ppm) was 8.1%. The “Number of Residual Viruses in Test Solution/Number of Residual Viruses only with Buffer × 100 (%)” value ([5]; pH 6.5, 10 ppm) was 100%, the “Number of Residual Viruses in Test Solution/Number of Residual Viruses only with Buffer × 100 (%)” value ([5]; pH 6.5, 50 ppm) was 83.6% and the “Number of Residual Viruses in Test Solution/Number of Residual Viruses only with Buffer × 100 (%)” value ([5]; pH 6.5, 100 ppm) was 87.9%. The “Number of Residual Viruses in Test Solution/Number of Residual Viruses only with Buffer × 100 (%)” value ([5]; pH 6.5, 150 ppm) was 100%, the “Number of Residual Viruses in Test Solution/Number of Residual Viruses only with Buffer × 100 (%)” value ([5]; pH 6.5, 200 ppm) was 15.3% and the “Number of Residual Viruses in Test Solution/Number of Residual Viruses only with Buffer × 100 (%)” value ([5]; pH 7.5, 10 ppm) was 100%. For the same molecule, the “Number of Residual Viruses in Test Solution/Number of Residual Viruses only with Buffer × 100 (%)” value ([5]; pH 7.5, 50 ppm) was 90.4%, the “Number of Residual Viruses in Test Solution/Number of Residual Viruses only with Buffer × 100 (%)” value ([5]; pH 7.5, 100 ppm) was 100% and the “Number of Residual Viruses in Test Solution/Number of Residual Viruses only with Buffer × 100 (%)” value ([5]; pH 7.5, 150 ppm) was 100%. The “Number of Residual Viruses in Test Solution/Number of Residual Viruses only with Buffer × 100 (%)” value ([5]; pH 7.5, 200 ppm) was 10.4%, the “Number of Residual Viruses in Test Solution/Number of Residual Viruses only with Buffer × 100 (%)” value ([5]; pH 8.5, 10 ppm) was 100% and the “Number of Residual Viruses in Test Solution/Number of Residual Viruses only with Buffer × 100 (%)” value ([5]; pH 8.5, 50 ppm) was 91.1%. For the same molecule, the “Number of Residual Viruses in Test Solution/Number of Residual Viruses only with Buffer × 100 (%)” value ([5]; pH 8.5, 100 ppm) was 78.2%, the “Number of Residual Viruses in Test Solution/Number of Residual Viruses only with Buffer × 100 (%)” value ([5]; pH 8.5, 150 ppm) was 94% and the “Number of Residual Viruses in Test Solution/Number of Residual Viruses only with Buffer × 100 (%)” value ([5]; pH 8.5, 200 ppm) was 7.6%.
